Reference: ChEMBL document CHEMBL2417377, “Hit-to-lead optimization and kinase selectivity of imidazo[1,2-a]quinoxalin-4-amine derived JNK1 inhibitors” (Bioorg Med Chem Lett, 2013)

How the values were obtained:
Conditions in all cases: PC-3
[1] = molecular target: T1, Dual specificity mitogen-activated protein kinase kinase 6 (Homo sapiens) (UniProt P52564); test: Inhibition of MAP2K6 in human PC3 cell lysates at 10 uM using desthiobiotin-tagged ATP probe AX9989 followed by trypsinization by LC/MS analysis
T1 sequence (whole entry): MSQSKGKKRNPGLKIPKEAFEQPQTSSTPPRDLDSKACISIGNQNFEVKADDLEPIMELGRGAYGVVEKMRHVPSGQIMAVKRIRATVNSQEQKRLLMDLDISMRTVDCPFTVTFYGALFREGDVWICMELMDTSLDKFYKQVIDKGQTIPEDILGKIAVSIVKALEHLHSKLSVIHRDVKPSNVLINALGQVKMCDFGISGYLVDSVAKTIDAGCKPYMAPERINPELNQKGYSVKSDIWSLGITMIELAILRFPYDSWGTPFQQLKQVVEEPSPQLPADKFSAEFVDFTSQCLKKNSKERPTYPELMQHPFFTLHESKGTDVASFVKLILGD

[2] = molecular target: Tyrosine-protein kinase Yes (Homo sapiens) (UniProt P07947); test: Inhibition of YES in human PC3 cell lysates at 10 uM using desthiobiotin-tagged ATP probe AX9989 followed by trypsinization by LC/MS analysis
[3] = molecular target: IKK epsilon/TBK1 (Homo sapiens) (UniProt Q14164+Q9UHD2); test: Inhibition of IKKepsilon/TBK1 in human PC3 cell lysates at 10 uM using desthiobiotin-tagged ATP probe AX9989 followed by trypsinization by LC/MS analysis; type: protein-complex assay
[4] = molecular target: Protein kinase C beta type (Homo sapiens) (UniProt P05771); test: Inhibition of PKCbeta in human PC3 cell lysates at 10 uM using desthiobiotin-tagged ATP probe AX9989 followed by trypsinization by LC/MS analysis
[5] = molecular target: T2, Serine/threonine-protein kinase Nek8 (Homo sapiens) (UniProt Q86SG6); test: Inhibition of NEK8 in human PC3 cell lysates at 10 uM using desthiobiotin-tagged ATP probe AX9989 followed by trypsinization by LC/MS analysis
T2 sequence (whole entry): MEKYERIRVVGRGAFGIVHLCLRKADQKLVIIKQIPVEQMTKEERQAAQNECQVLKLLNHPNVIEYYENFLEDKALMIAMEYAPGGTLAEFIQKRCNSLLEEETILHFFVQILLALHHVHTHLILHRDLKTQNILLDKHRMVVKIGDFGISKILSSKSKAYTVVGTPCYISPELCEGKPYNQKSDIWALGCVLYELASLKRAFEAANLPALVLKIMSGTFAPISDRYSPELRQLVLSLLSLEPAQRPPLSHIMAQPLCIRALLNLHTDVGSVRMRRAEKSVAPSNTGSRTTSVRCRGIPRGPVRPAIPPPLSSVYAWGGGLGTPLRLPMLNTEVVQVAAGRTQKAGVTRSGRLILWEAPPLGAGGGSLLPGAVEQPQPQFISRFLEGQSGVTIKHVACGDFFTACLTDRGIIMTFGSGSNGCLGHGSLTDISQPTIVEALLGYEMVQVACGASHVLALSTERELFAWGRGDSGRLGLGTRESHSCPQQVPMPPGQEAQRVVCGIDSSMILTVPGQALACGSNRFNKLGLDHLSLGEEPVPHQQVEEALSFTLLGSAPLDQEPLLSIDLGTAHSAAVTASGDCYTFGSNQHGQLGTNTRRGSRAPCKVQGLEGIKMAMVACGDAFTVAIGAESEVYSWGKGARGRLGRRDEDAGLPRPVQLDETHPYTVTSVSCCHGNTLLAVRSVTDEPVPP

[6] = molecular target: T3, Serine/threonine-protein kinase 3 (Homo sapiens) (UniProt Q13188); test: Inhibition of MST2 in human PC3 cell lysates at 10 uM using desthiobiotin-tagged ATP probe AX9989 followed by trypsinization by LC/MS analysis
T3 sequence (whole entry): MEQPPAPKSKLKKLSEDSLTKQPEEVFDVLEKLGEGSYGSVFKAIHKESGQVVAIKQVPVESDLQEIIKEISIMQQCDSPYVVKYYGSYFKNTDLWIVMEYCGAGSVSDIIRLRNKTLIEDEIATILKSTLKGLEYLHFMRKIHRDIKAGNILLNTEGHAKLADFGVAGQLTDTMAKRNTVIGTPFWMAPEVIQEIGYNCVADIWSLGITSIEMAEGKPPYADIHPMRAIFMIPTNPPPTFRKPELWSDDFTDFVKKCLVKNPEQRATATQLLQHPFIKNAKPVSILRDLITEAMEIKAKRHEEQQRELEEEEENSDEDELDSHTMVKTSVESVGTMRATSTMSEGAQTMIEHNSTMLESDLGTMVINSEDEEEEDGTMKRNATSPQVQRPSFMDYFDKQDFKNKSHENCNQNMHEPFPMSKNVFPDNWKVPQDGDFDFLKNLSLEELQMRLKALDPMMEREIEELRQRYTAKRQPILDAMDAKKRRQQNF

[7] = molecular target: Hepatocyte growth factor receptor (Homo sapiens) (UniProt P08581); test: Inhibition of MET in human PC3 cell lysates at 10 uM using desthiobiotin-tagged ATP probe AX9989 followed by trypsinization by LC/MS analysis
Sequence of Hepatocyte growth factor receptor (Homo sapiens) (P08581 whole entry): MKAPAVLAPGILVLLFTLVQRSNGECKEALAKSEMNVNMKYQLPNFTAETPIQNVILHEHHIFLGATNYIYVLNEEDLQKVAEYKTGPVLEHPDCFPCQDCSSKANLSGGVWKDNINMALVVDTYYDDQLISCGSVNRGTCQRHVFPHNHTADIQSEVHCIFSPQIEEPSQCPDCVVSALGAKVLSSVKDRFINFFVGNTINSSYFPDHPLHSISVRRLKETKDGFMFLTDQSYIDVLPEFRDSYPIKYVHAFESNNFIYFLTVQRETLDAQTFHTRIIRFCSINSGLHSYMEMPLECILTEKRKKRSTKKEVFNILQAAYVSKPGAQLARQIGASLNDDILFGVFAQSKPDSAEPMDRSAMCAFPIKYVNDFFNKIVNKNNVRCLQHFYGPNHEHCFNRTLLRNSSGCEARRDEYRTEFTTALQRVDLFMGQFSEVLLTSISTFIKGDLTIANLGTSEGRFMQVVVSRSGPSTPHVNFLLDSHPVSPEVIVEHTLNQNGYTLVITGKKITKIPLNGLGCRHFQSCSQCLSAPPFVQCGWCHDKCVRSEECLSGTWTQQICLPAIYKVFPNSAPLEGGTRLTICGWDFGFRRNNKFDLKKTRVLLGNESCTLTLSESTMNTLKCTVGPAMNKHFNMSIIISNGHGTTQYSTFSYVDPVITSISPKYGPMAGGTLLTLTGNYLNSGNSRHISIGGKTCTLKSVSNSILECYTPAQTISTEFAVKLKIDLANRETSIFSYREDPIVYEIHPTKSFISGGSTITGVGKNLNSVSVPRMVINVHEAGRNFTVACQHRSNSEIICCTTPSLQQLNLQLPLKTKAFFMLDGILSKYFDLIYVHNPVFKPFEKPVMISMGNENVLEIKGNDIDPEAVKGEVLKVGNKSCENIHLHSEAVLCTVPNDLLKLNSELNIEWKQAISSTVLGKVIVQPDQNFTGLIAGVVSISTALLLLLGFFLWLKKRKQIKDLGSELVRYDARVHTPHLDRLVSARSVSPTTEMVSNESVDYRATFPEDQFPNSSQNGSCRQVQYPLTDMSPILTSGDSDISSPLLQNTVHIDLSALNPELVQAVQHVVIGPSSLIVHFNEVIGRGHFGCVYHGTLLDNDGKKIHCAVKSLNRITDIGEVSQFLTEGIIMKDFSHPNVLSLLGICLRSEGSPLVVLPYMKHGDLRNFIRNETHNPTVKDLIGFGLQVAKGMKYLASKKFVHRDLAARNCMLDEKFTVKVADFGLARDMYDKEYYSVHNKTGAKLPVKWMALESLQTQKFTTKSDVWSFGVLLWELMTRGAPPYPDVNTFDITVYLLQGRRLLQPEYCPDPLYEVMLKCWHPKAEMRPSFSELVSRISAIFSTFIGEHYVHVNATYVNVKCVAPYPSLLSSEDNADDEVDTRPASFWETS

Sequence of Tyrosine-protein kinase Yes (Homo sapiens) (P07947 2-543 limits assumed): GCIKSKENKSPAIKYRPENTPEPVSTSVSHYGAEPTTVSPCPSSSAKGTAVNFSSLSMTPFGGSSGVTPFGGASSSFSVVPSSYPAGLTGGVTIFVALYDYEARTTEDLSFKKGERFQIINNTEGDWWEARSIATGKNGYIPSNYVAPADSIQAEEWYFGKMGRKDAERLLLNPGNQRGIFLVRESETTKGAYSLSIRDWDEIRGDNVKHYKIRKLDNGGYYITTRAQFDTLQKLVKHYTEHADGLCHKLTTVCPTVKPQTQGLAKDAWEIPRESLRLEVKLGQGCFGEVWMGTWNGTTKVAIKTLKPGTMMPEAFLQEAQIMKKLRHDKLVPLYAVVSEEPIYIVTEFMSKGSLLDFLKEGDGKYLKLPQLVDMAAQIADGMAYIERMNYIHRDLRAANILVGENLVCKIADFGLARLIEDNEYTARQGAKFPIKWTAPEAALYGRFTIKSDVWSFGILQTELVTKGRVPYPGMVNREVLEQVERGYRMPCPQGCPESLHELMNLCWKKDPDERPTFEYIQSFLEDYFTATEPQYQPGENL
Sequence of Protein kinase C beta type (Homo sapiens) (P05771 2-671 limits assumed): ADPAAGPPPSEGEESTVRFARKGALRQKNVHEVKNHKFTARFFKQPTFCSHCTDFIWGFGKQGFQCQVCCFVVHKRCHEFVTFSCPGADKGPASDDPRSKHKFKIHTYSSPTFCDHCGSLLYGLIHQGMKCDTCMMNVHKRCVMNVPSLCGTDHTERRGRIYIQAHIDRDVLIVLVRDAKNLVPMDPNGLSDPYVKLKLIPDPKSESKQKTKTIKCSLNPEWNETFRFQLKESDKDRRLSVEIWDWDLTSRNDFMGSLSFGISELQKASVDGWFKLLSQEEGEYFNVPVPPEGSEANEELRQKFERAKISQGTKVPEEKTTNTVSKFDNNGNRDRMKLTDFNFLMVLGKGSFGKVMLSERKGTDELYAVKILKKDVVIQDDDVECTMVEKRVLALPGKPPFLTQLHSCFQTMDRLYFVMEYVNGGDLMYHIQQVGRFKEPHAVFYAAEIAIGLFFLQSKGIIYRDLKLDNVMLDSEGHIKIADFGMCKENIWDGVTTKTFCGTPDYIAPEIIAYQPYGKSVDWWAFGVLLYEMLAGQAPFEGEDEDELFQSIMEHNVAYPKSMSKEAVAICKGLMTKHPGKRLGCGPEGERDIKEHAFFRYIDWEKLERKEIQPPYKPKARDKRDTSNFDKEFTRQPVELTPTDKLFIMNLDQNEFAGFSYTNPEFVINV

inhibition [1] [%] | inhibition [2] [%] | inhibition [3] [%] | inhibition [4] [%] | inhibition [5] [%] | inhibition [6] [%] | inhibition [7] [%] | Compound
< 35 | < 35 | < 35 | < 35 | < 35 | < 35 | < 35 | NC(=O)c1ccc2nc(N[C@H]3CC[C@H](O)CC3)c3nccn3c2c1
< 35 | < 35 | < 35 | < 35 | < 35 | < 35 | < 35 | O=C(NC1(Cc2ccc(F)cc2)CC1)c1ccc2nc(N[C@H]3CC[C@H](O)CC3)c3nccn3c2c1
< 35 | < 35 | < 35 | < 35 | < 35 | < 35 | < 35 | O=C(NC1(c2ccccc2)CCC1)c1ccc2nc(N[C@H]3CC[C@H](O)CC3)c3nccn3c2c1
< 35 | < 35 | < 35 | < 35 | < 35 | < 35 | < 35 | CC[C@@H](NC(=O)c1ccc2nc(N[C@H]3CC[C@H](O)CC3)c3nccn3c2c1)c1ccccc1
< 35 | < 35 | < 35 | < 35 | < 35 | < 35 | < 35 | C[C@H](NC(=O)c1ccc2nc(N[C@H]3CC[C@H](O)CC3)c3nccn3c2c1)c1ccccc1
< 35 | < 35 | < 35 | < 35 | < 35 | < 35 | < 35 | O=C(NC1(c2ccccc2)CC1)c1ccc2nc(N[C@H]3CC[C@H](O)CC3)c3nccn3c2c1
< 35 | < 35 | < 35 | < 35 | < 35 | < 35 | < 35 | CCC[C@@H](NC(=O)c1ccc2nc(N[C@H]3CC[C@H](O)CC3)c3nccn3c2c1)c1ccccc1

Further lines, the compound ahead of its results:

Compound | inhibition [1] [%] | inhibition [2] [%] | inhibition [3] [%] | inhibition [4] [%] | inhibition [5] [%] | inhibition [6] [%] | inhibition [7] [%]
C[C@@H](NC(=O)c1ccc2nc(N[C@H]3CC[C@H](O)CC3)c3nccn3c2c1)c1ccccc1 | < 35 | < 35 | 38.7 | < 35 | < 35 | < 35 | < 35
O=C(N[C@H](CO)c1ccccc1)c1ccc2nc(N[C@H]3CC[C@H](O)CC3)c3nccn3c2c1 | < 35 | < 35 | < 35 | < 35 | < 35 | < 35 | < 35
CC(C)(NC(=O)c1ccc2nc(N[C@H]3CC[C@H](O)CC3)c3nccn3c2c1)c1ccccc1 | < 35 | < 35 | < 35 | < 35 | < 35 | < 35 | < 35
O=C(O)c1ccc2nc(N[C@H]3CC[C@H](O)CC3)c3nccn3c2c1 | < 35 | < 35 | < 35 | < 35 | < 35 | < 35 | < 35
O=C(NC1(c2ccc(F)cc2)CC1)c1ccc2nc(N[C@H]3CC[C@H](O)CC3)c3nccn3c2c1 | < 35 | < 35 | < 35 | < 35 | < 35 | < 35 | < 35
